The subject of assay [1] is Human immunodeficiency virus 1. Nature of the assay: Antiviral activity against HIV1. The class given is functional, organism-based.
Assay [2] concerns the target Human immunodeficiency virus type 1 reverse transcriptase (Human immunodeficiency virus 1, UniProt Q72547). Nature of the assay: Inhibition of recombinant HIV1 RT.

Take `O=C(c1ccc(Cl)cc1)c1nc(SCc2ccccc2)[nH]c(=O)c1O`: the midpoint of the response in assay [1], the EC50, lay at 164 µM. Also, the IC50 in assay [2] amounted to 113 µM. Take `O=C(c1ccc(Br)cc1)c1nc(SCc2ccccc2)[nH]c(=O)c1O`: the midpoint of the response in assay [1], the EC50, lay at 175 µM. Also, in assay [2], the half-maximal inhibitory concentration (IC50) is above 200 µM. On the same counts, the results for `O=c1[nH]c(SCc2ccccc2)nc(C(O)c2ccccc2)c1O` (centres undefined) are 36.5 µM and above 200 µM. In assay [1], `CC(C)Nc1cccnc1N1CCN(C(=O)c2cc3cc(NS(C)(=O)=O)ccc3[nH]2)CC1` [DELAVIRDINE] came in with an EC50 of 0.021 µM.

In turn, `O=C(c1ccccc1)c1nc(SCc2ccccc2)[nH]c(=O)c1O` yielded a 50% effective concentration (EC50) in assay [1] of 36 µM. In addition, the concentration for half-maximal inhibition (IC50) in assay [2] is 95.1 µM.

The values above are taken from ChEMBL document CHEMBL4428124, “Advances in rationally designed dual inhibitors of HIV-1 reverse transcriptase and integrase” (Bioorg Med Chem, 2016).
